Patent US8637252B2, “Methods and compositions for determining altered susceptibility of HIV-1 to anti-HIV drugs” (Monogram Biosciences, Inc., priority 2011, dated 2014)
Values joined by “and” are separate entries in the source; they are usually repeats but may differ in a detail not shown here. Equal values may be shown once.

System: HIV-1 (patient-derived POL segment)
Assay: phenotypic drug resistance test, resistance test vectors with patient-derived POL segment (entire pol gene), luciferase, 293 cells
Assay type: cell-based
Source text: Patient-derived segment(s) corresponding to the entire pol gene, encoding HIV protease, reverse transcriptase (including RNAse H), and integrase (hereinafter “POL”), the portion of pol encoding amino acids 1-305 of reverse transcriptase (hereinafter “PR-RT”), the portion of pol encoding amino acids 319-440 of reverse transcriptase (including RNAse H), and integrase (hereinafter “RHIN”), were amplified by the reverse transcription-polymerase chain reaction method (RT-PCR) using viral RNA isolated from viral particles present in the plasma or serum of HIV-infected individuals as described below. The portion of pol encoding protease, amino acids 1-531 of reverse transcriptase (including RNase H) (hereinafter “PRRT-RH”), or the portion of pol encoding protease, reverse transcriptase (including RNAse H) and integrase (hereinafter “PRRT-RHIN”), were assembled from amplicons described above by standard recombinant DNA techniques involving a KpnI restriction site at amino acid 400 or a Pin A1 site at amino acid 315.
Virus was pelleted by centrifugation at 20,400×g for 60 min from plasma (typically, 1 ml) prepared from blood samples collected in evacuated tubes containing either EDTA, acid-citrate dextrose, or heparin as an anticoagulant. Virus particles were disrupted by resuspending the pellets in 200 [1.1 of lysis buffer (4 M guanidine thiocyanate, 0.1 M Tris HCl (pH 8.0), 0.5% sodium lauryl sarcosine, 1% dithiothreitol). RNA was extracted from viral lysates by using oligo(dT) linked to magnetic beads (Dynal, Oslo, Norway). Reverse transcription was performed with Superscript III (Invitrogen) at 50 degrees for 1 hour using primer 1.
From the resultant cDNA either POL or RHIN sequences were amplified using the Advantage High Fidelity PCR kit (BD Biosciences; Clontech). POL amplification products are made using forward Primer 3 containing an Apal site and reverse Primer 4 containing a Xho 1 site. RHIN amplification products are made using forward Primer 2 containing a P1NA1 site and reverse Primer 4 containing a Xho 1 site.
A retroviral vector designed to measure antiretroviral drug susceptibility was constructed by using an infectious molecular clone of HIV-1. The vector, referred to herein as an indicator gene viral vector (IGVV), is replication defective and contains a luciferase expression cassette inserted within a deleted region of the envelope (env) gene. The IGVV is described in U.S. Pat. No. 5,837,464 (International Publication Number WO 97/27319) which is hereby incorporated by reference in its entirety. This retroviral vector was further modified to allow insertion of either the entire pol gene (POL) or the portion of poi encoding amino acids 319-440 of reverse transcriptase, the RNase H portion of reverse transcriptase, and integrase (REIN) by engineering an Xho l restriction enzyme recognition site into vif. Prior to doing this, an Xho 1 site in nef was deleted. Resistance Test vectors (RTVs) were constructed by incorporating amplified POL or RHIN into the IGVV by using Apal and Xhol or PinAI and Xho 1 restriction sites respectively. RTVs were prepared as libraries (pools) in order to capture and preserve the pol or RHIN sequence heterogeneity of the virus in the patient. POL amplification products were digested with Apal and Xhol, purified by agarose gel electrophoresis, and ligated to ApaI- and Xhol-digested IGVV DNA. RHIN amplification products were digested with PinAI and Xho/, purified by agarose gel electrophoresis, and ligated to PinAI and Xhol-digested IGVV DNA. Ligation reactions were used to transform competent Escherichia coli (Invitrogen, Carlsbad, Calif.). An aliquot of each transformation was plated onto agar, and colony counts were used to estimate the number of patient-derived segments represented in each RTV library. RTV libraries that comprised less than 50 members are not considered representative of the patient virus. […]

[1] = Sample 47 (K103K/N, V106V/A, Y181Y/C, G190G/A)
[2] = Sample 58 (K103N, Y181Y/C, G190G/A)
[3] = Sample 62 (K103H, P225P/H, T369T/I)
[4] = Sample 90 (K103K/N, Y181C, G190A)

SMILES: O=C1Nc2ccc(Cl)cc2[C@@](C#CC2CC2)(C(F)(F)F)O1 [EFV, efavirenz]
- fold change in IC50, pol (Sample 31 (K103N)): 56.0 fold
- pol/PR-RT ratio (Sample 31 (K103N)): 2.5
- fold change in IC50, pol (Sample 33 (K103S)): 5.9 fold
- pol/PR-RT ratio (Sample 33 (K103S)): 0.8
- fold change in IC50, pol (Sample 34): 0.6 fold
- pol/PR-RT ratio (Sample 34): 1.4
- fold change in IC50, pol (Sample 35 (K103H)): 9.5 fold
- pol/PR-RT ratio (Sample 35 (K103H)): 1.0
- fold change in IC50, pol (Sample 36 (K103K/W)): 2.2 fold
- pol/PR-RT ratio (Sample 36 (K103K/W)): 0.3
- fold change in IC50, pol (Sample 38 (K103N)): 27.0 fold
- pol/PR-RT ratio (Sample 38 (K103N)): 0.6
- fold change in IC50, pol (Sample 39 (T369A)): 1.0 fold
- pol/PR-RT ratio (Sample 39 (T369A)): 4.0
- fold change in IC50, pol (Sample 42 (G190G/A)): 1.1 fold
- pol/PR-RT ratio (Sample 42 (G190G/A)): 0.3
- fold change in IC50, pol (Sample 45): 0.2 fold
- pol/PR-RT ratio (Sample 45): 1.0
- fold change in IC50, pol [1]: 30.2 fold
- pol/PR-RT ratio [1]: 0.2
- fold change in IC50, pol (Sample 50 (K103N)): 24.1 fold
- pol/PR-RT ratio (Sample 50 (K103N)): 0.4
- fold change in IC50, pol (Sample 51): 0.5 fold
- pol/PR-RT ratio (Sample 51): 1.1
- fold change in IC50, pol (Sample 52): 1.1 fold
- pol/PR-RT ratio (Sample 52): 0.8
- fold change in IC50, pol [2]: 153.9 fold
- pol/PR-RT ratio [2]: 5.8
- fold change in IC50, pol [3]: 202 fold and 202.0 fold and 202.00 fold
- pol/PR-RT ratio [3]: 10.1
- fold change in IC50, pol (Sample 64 (T369T/A)): 0.3 fold
- pol/PR-RT ratio (Sample 64 (T369T/A)): 0.3
- fold change in IC50, pol (Sample 69): 1.2 fold
- pol/PR-RT ratio (Sample 69): 1.6
- fold change in IC50, pol (Sample 72): 0.8 fold
- pol/PR-RT ratio (Sample 72): 1.5
- fold change in IC50, pol (Sample 80 (K103K/N, Y181Y/C)): 6.3 fold
- pol/PR-RT ratio (Sample 80 (K103K/N, Y181Y/C)): 0.6
- fold change in IC50, pol (Sample 81 (K103N, P225H)): 136.0 fold
- pol/PR-RT ratio (Sample 81 (K103N, P225H)): 1.4
- fold change in IC50, pol (Sample 84): 0.7 fold
- pol/PR-RT ratio (Sample 84): 1.0
- fold change in IC50, pol (Sample 85): 77.0 fold
- pol/PR-RT ratio (Sample 85): 3.5
- fold change in IC50, pol (Sample 87): 1.0 fold
- pol/PR-RT ratio (Sample 87): 1.1
- fold change in IC50, pol (Sample 89 (L1001, K103N)): 700.0 fold
- pol/PR-RT ratio (Sample 89 (L1001, K103N)): 1.0
- fold change in IC50, pol [4]: 66.0 fold
- pol/PR-RT ratio [4]: 1.3
- fold change in IC50, pol (Sample 92): 0.8 fold
- pol/PR-RT ratio (Sample 92): 0.8
- fold change in IC50, pol (Sample 93): 0.7 fold
- pol/PR-RT ratio (Sample 93): 0.8

SMILES: Cc1ccnc2c1NC(=O)c1cccnc1N2C1CC1 [NVP, nevirapine]
- fold change in IC50, pol (Sample 31 (K103N)): 400.0 fold
- pol/PR-RT ratio (Sample 31 (K103N)): 4.5
- fold change in IC50, pol (Sample 33 (K103S)): 25.1 fold
- pol/PR-RT ratio (Sample 33 (K103S)): 1.1
- fold change in IC50, pol (Sample 34): 0.3 fold
- pol/PR-RT ratio (Sample 34): 1.3
- fold change in IC50, pol (Sample 35 (K103H)): 28.3 fold
- pol/PR-RT ratio (Sample 35 (K103H)): 1.1
- fold change in IC50, pol (Sample 36 (K103K/W)): 2.4 fold
- pol/PR-RT ratio (Sample 36 (K103K/W)): 0.2
- fold change in IC50, pol (Sample 38 (K103N)): 81.0 fold
- pol/PR-RT ratio (Sample 38 (K103N)): 0.7
- fold change in IC50, pol (Sample 39 (T369A)): 2.8 fold
- pol/PR-RT ratio (Sample 39 (T369A)): 9.0
- fold change in IC50, pol (Sample 42 (G190G/A)): 7.1 fold
- pol/PR-RT ratio (Sample 42 (G190G/A)): 0.2
- fold change in IC50, pol (Sample 45): 0.3 fold
- pol/PR-RT ratio (Sample 45): 1.1
- fold change in IC50, pol [1]: 400.0 fold
- pol/PR-RT ratio [1]: 1.0
- fold change in IC50, pol (Sample 50 (K103N)): 72.7 fold
- pol/PR-RT ratio (Sample 50 (K103N)): 0.5
- fold change in IC50, pol (Sample 51): 0.7 fold
- pol/PR-RT ratio (Sample 51): 1.6
- fold change in IC50, pol (Sample 52): 1.8 fold
- pol/PR-RT ratio (Sample 52): 0.9
- fold change in IC50, pol [2]: 400.0 fold
- pol/PR-RT ratio [2]: 1.0
- fold change in IC50, pol [3]: 400.0 fold and 400.00 fold
- pol/PR-RT ratio [3]: 6.3
- fold change in IC50, pol (Sample 64 (T369T/A)): 0.3 fold
- pol/PR-RT ratio (Sample 64 (T369T/A)): 0.3
- fold change in IC50, pol (Sample 69): 1.6 fold
- pol/PR-RT ratio (Sample 69): 1.6
- fold change in IC50, pol (Sample 72): 1.1 fold
- pol/PR-RT ratio (Sample 72): 1.6
- fold change in IC50, pol (Sample 80 (K103K/N, Y181Y/C)): 17.0 fold
- pol/PR-RT ratio (Sample 80 (K103K/N, Y181Y/C)): 0.4
- fold change in IC50, pol (Sample 81 (K103N, P225H)): 114.0 fold
- pol/PR-RT ratio (Sample 81 (K103N, P225H)): 1.2
- fold change in IC50, pol (Sample 84): 0.9 fold
- pol/PR-RT ratio (Sample 84): 1.2
- fold change in IC50, pol (Sample 85): 400.0 fold
- pol/PR-RT ratio (Sample 85): 3.0
- fold change in IC50, pol (Sample 87): 1.4 fold
- pol/PR-RT ratio (Sample 87): 1.7
- fold change in IC50, pol (Sample 89 (L1001, K103N)): 400.0 fold
- pol/PR-RT ratio (Sample 89 (L1001, K103N)): 10.8
- fold change in IC50, pol [4]: 400.0 fold
- pol/PR-RT ratio [4]: 1.0
- fold change in IC50, pol (Sample 92): 1.1 fold
- pol/PR-RT ratio (Sample 92): 1.0
- fold change in IC50, pol (Sample 93): 1.4 fold
- pol/PR-RT ratio (Sample 93): 0.9

SMILES: CC(C)Nc1cccnc1N1CCN(C(=O)c2cc3cc(NS(C)(=O)=O)ccc3[nH]2)CC1 [DLV, delavirdine]
- fold change in IC50, pol (Sample 31 (K103N)): 28.0 fold
- pol/PR-RT ratio (Sample 31 (K103N)): 1.7
- fold change in IC50, pol (Sample 33 (K103S)): 5.7 fold
- pol/PR-RT ratio (Sample 33 (K103S)): 0.7
- fold change in IC50, pol (Sample 34): 0.4 fold
- pol/PR-RT ratio (Sample 34): 1.0
- fold change in IC50, pol (Sample 35 (K103H)): 5.4 fold
- pol/PR-RT ratio (Sample 35 (K103H)): 0.8
- fold change in IC50, pol (Sample 36 (K103K/W)): 1.9 fold
- pol/PR-RT ratio (Sample 36 (K103K/W)): 0.2
- fold change in IC50, pol (Sample 38 (K103N)): 66.0 fold
- pol/PR-RT ratio (Sample 38 (K103N)): 0.5
- fold change in IC50, pol (Sample 39 (T369A)): 1.2 fold
- pol/PR-RT ratio (Sample 39 (T369A)): 5.1
- fold change in IC50, pol (Sample 42 (G190G/A)): 0.2 fold
- pol/PR-RT ratio (Sample 42 (G190G/A)): 0.5
- fold change in IC50, pol (Sample 45): 0.1 fold
- pol/PR-RT ratio (Sample 45): 0.7
- fold change in IC50, pol [1]: 5.4 fold
- pol/PR-RT ratio [1]: 0.9
- fold change in IC50, pol (Sample 50 (K103N)): 65.4 fold
- pol/PR-RT ratio (Sample 50 (K103N)): 0.3
- fold change in IC50, pol (Sample 51): 0.3 fold
- pol/PR-RT ratio (Sample 51): 0.9
- fold change in IC50, pol (Sample 52): 2.7 fold
- pol/PR-RT ratio (Sample 52): 0.8
- fold change in IC50, pol [2]: 250.0 fold
- pol/PR-RT ratio [2]: 1.7
- fold change in IC50, pol [3]: 140.0 fold and 140.00 fold
- pol/PR-RT ratio [3]: 8.8
- fold change in IC50, pol (Sample 64 (T369T/A)): 0.3 fold
- pol/PR-RT ratio (Sample 64 (T369T/A)): 0.2
- fold change in IC50, pol (Sample 69): 1.8 fold
- pol/PR-RT ratio (Sample 69): 1.2
- fold change in IC50, pol (Sample 72): 1.2 fold
- pol/PR-RT ratio (Sample 72): 1.4
- fold change in IC50, pol (Sample 80 (K103K/N, Y181Y/C)): 22.0 fold
- pol/PR-RT ratio (Sample 80 (K103K/N, Y181Y/C)): 0.3
- fold change in IC50, pol (Sample 81 (K103N, P225H)): 9.5 fold
- pol/PR-RT ratio (Sample 81 (K103N, P225H)): 0.8
- fold change in IC50, pol (Sample 84): 0.5 fold
- pol/PR-RT ratio (Sample 84): 0.6
- fold change in IC50, pol (Sample 85): 69.0 fold
- pol/PR-RT ratio (Sample 85): 2.7
- fold change in IC50, pol (Sample 87): 0.7 fold
- pol/PR-RT ratio (Sample 87): 0.9
- fold change in IC50, pol (Sample 89 (L1001, K103N)): 250.0 fold
- pol/PR-RT ratio (Sample 89 (L1001, K103N)): 1.0
- fold change in IC50, pol [4]: 4.8 fold
- pol/PR-RT ratio [4]: 1.1
- fold change in IC50, pol (Sample 92): 0.8 fold
- pol/PR-RT ratio (Sample 92): 0.8
- fold change in IC50, pol (Sample 93): 0.2 fold
- pol/PR-RT ratio (Sample 93): 0.6
